Series [1] deals with Mus musculus. As to the kind of experiment: Anticonvulsant activity in ip dosed Mus musculus (mouse) assessed as protection against pentylenetetrazole-induced seizures administered 1 hr before pentylenetetrazole challenge measured after 30 min. The class given is functional. The settings on record: read-out: PD50.
Series [2] is described as follows: Lipophilicity, log P of the compound. It counts as physicochemical. The settings on record: octanol/water.
Series [3] relates to Mus musculus. Put plainly: Anticonvulsant activity in Mus musculus (mouse) assessed as protection against pentylenetetrazole-induced seizures at 150 mg/kg, ip administered 1 hr before pentylenetetrazole challenge measured after 30 min. The class given is functional. The settings on record: route intraperitoneal.
For series [4], the system named is Mus musculus. Put plainly: Anticonvulsant activity in Mus musculus (mouse) assessed as protection against pentylenetetrazole-induced seizures at 100 mg/kg, ip administered 1 hr before pentylenetetrazole challenge measured after 30 min. The class given is functional. The settings on record: route intraperitoneal.
The subject of series [5] is Mus musculus. As to the kind of experiment: Anticonvulsant activity in Mus musculus (mouse) assessed as protection against pentylenetetrazole-induced seizures at 50 mg/kg, ip administered 1 hr before pentylenetetrazole challenge measured after 30 min. The class given is functional. The settings on record: route intraperitoneal.
In series [6] the test system is Mus musculus. As to the kind of experiment: Anticonvulsant activity in Mus musculus (mouse) assessed as protection against pentylenetetrazole-induced seizures at 20 mg/kg, ip administered 1 hr before pentylenetetrazole challenge measured after 30 min. The class given is functional. The settings on record: route intraperitoneal.
In series [7] the test system is Mus musculus. Put plainly: Anticonvulsant activity in Mus musculus (mouse) assessed as protection against pentylenetetrazole-induced seizures at 15 mg/kg, ip administered 1 hr before pentylenetetrazole challenge measured after 30 min. The class given is functional. The settings on record: route intraperitoneal.
Series [8] has as its system Mus musculus. Put plainly: Anticonvulsant activity in Mus musculus (mouse) assessed as protection against pentylenetetrazole-induced seizures at 10 mg/kg, ip administered 1 hr before pentylenetetrazole challenge measured after 30 min. It counts as functional. The settings on record: route intraperitoneal.

As a reminder, the logP is the decadic logarithm of the partition coefficient of the neutral form, usually between octanol and water. A higher logP goes with a more lipophilic compound.

For the compound `CN1C(=O)CN=C(c2ccccc2)c2cc(Cl)ccc21` [DIAZEPAM], the ED50 in the series on Mus musculus [1] is 2 mg/kg.
The compound `O=c1c2ccccc2n2c(-c3ccc(Cl)cc3)nnc2n1-c1ccccc1` had a logP in series [2] of 5.25. Also, the ED50 in the series on Mus musculus [1] was found to be 64 mg/kg. Further, the Activity is 100% in the series on Mus musculus [3], 62.5% in the series on Mus musculus [4] and 37.5% in the series with Mus musculus [5].
The corresponding values for `COc1ccc(/C=N/Nc2nc3ccccc3c(=O)n2-c2ccccc2)cc1OC` are 4.72, 83 mg/kg, 87.5%, 62.5% and 25%.
The corresponding values for `N#Cc1cnn(-c2nc3ccccc3c(=O)n2-c2ccccc2)c1N` are 3.01, 90 mg/kg, 87.5%, 50% and 25%.
The corresponding values for `O=C(CSc1nc2ccccc2c(=O)n1-c1ccccc1)c1ccc(Br)cc1` are 5.77, 78 mg/kg, 100%, 50% and 37.5%.
`CCn1c(SCC(=O)c2ccc(Br)cc2)nc2ccccc2c1=O` came in with a log partition coefficient (logP) in series [2] of 4.45. The ED50 with Mus musculus [1] is 86 mg/kg. Besides, the values for the Activity with Mus musculus [3], with Mus musculus [4] and with Mus musculus [5] were 87.5%, 50% and 37.5%, respectively.
In the case of `CCC1(c2ccccc2)C(=O)NC(=O)NC1=O` [PHENOBARBITAL], the logP in series [2] was 1.36. Moreover, the ED50 with Mus musculus [1] was determined as 16 mg/kg. In addition, the values for the Activity in the series on Mus musculus [6], with Mus musculus [7] and in the series with Mus musculus [8] were 62.5%, 50% and 37.5%, respectively.
On to `O=c1c2ccccc2nc(N/N=C/c2ccc(Cl)cc2)n1-c1ccccc1`, for which the lipophilicity (logP) in series [2] is 5.53. Besides, in the series with Mus musculus [1], the ED50 turned out to be 50 mg/kg. In addition, the Activity came to 100% with Mus musculus [3], 100% in the series on Mus musculus [4] and 50% with Mus musculus [5].
`O=C1C=C(Sc2nc3ccccc3c(=O)n2-c2ccccc2)C(=O)N=N1` registered a logP in series [2] of 2.13. For the same compound, in the series on Mus musculus [1], the ED50 was determined as 66 mg/kg. Also, the Activity with Mus musculus [3] is 100%; with Mus musculus [4], 62.5%; with Mus musculus [5] it was 37.5%.
The corresponding values for `COc1ccc(-c2nnc3n(-c4ccccc4)c(=O)c4ccccc4n23)cc1OC` are 4.44, 160 mg/kg, 50%, 37.5% and 12.5%.
The corresponding values for `COc1ccc(C(=O)CSc2nc3ccccc3c(=O)n2-c2ccccc2)cc1` are 4.82, 85 mg/kg, 87.5%, 50% and 37.5%.
The corresponding values for `O=C(CSc1nc2ccccc2c(=O)n1-c1ccccc1)c1ccc(Cl)cc1` are 5.5, 80 mg/kg, 87.5%, 62.5% and 25%.
Take `O=C1NN=C(c2ccccc2)C(c2ccccc2)C1Sc1nc2ccccc2c(=O)n1-c1ccccc1` (stereo unspecified): the log partition coefficient (logP) in series [2] is 6.4. The ED50 in the series on Mus musculus [1] is 68 mg/kg. Moreover, the Activity in the series on Mus musculus [3] is 87.5%; in the series on Mus musculus [4], 62.5%; in the series on Mus musculus [5] it was 37.5%.

Values taken from ChEMBL document CHEMBL3045667, “Design, synthesis, and anticonvulsant activity of novel quinazolinone analogues” (Med Chem Res, 2011).
